For assay [1], the target named is Recombinant human PKC-theta (His-tagged 362-706) (Homo sapiens (Human), UniProt Q04759). The experiment in a line: PKC-theta inhibition assay (HTRF KinEASE kit). The settings on record: ATP 6.5 μM; for IC50: binned A to H, read-out: PKC-theta HTRF pIC50 (binned) (converted). Format: biochemical. Summed up:
(§1)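 HTRF KinEASE kinase assay, buffer supplemented with 10 mM MgCl2, 1 mM DTT, 0.1% Tween 20; enzyme at 10 ng/ml preincubated 30 min on ice with compound. PKC-theta: 525 nM STK substrate, 6.5 μM ATP, 30 min at 25° C; PKC-delta: 243 nM substrate, 5.7 μM ATP, 20 min. IC50 from 4-parameter fit of 10-dose series.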
(In general: TR-FRET usually uses a lanthanide donor and a delayed reading to cut background.)

Assay [2] has as its system IL-2 secretion by human effector memory T cells (TEM). The experiment in a line: Effector memory T cells IL-2 release assay. Format: cell-based. The following applies: T-cell, human CD4+ TEM cells, CD3/CD28 bead stimulation, 24 h. Summed up: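 Human CD4+ effector memory T cells (negatively sorted from donor PBMC), 5,000 per well, stimulated with CD3/CD28 beads and 10 semi-log compound doses for 24 h at 37° C, 0.1% DMSO. Supernatant IL-2 measured by HTRF; IC50 from 4-parameter logistic fit; viability checked by flow cytometry.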

In assay [3] the target is Recombinant human PKC-delta (His-tagged 345-676) (Homo sapiens (Human), UniProt Q05655). The experiment in a line: PKC-delta inhibition assay (HTRF KinEASE kit), PKC-theta/PKC-delta selectivity. The following applies: ratio; for PKC-theta/PKC-delta selectivity: PKC-theta over PKC-delta, HTRF assays; for PKC-theta/PKC-delta selectivity (binned): binned A to G. Format: biochemical. The gist of the method: as §1
Recombinant human PKC-delta (His-tagged 345-676), sequence (Q05655 345-676): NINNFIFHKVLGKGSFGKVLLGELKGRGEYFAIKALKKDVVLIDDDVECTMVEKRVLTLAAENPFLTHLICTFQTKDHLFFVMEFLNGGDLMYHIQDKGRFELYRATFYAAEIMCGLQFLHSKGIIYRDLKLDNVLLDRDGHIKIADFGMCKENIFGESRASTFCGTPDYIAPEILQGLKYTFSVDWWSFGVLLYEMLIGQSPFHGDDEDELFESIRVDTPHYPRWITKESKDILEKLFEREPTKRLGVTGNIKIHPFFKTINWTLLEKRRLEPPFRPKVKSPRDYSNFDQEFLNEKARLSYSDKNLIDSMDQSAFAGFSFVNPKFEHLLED

Setting [4] is: binned A to G, read-out: PKC-theta IL2 pIC50 (binned) (converted).
The mark [5] stands for this setting: read-out: PKC-theta IL2 pIC50 (converted).

Each structure is given as a SMILES string. Like-named read-outs stand apart in the source and are kept apart here.

Recombinant human PKC-theta (His-tagged 362-706), sequence (Q04759 362-706): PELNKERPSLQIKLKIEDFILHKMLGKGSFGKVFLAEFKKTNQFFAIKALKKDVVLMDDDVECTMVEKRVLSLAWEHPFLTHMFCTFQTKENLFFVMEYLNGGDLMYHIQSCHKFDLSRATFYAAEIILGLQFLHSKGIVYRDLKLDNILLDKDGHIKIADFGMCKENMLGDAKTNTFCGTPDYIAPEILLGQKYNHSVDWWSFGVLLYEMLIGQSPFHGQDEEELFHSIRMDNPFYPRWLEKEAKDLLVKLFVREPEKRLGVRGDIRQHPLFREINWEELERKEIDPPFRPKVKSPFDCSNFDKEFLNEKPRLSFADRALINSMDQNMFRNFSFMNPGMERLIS

For the compound `CC1(C)C(=O)Nc2nccc(-c3nn(CC4(F)CCNC4)c4ccccc34)c21` (stereo not drawn) [Example 96], in assay [1], the “PKC-theta HTRF pIC50” value was 8.7. Further, the IC50 in assay [1] was 1 to 3.16 nM; in assay [2] (setting [4]), 10 to 31.6 nM; in assay [2] (setting [5]) it was 25.1 nM. Moreover, the PKC-theta/PKC-delta selectivity in assay [3] amounted to 17. In addition, the “PKC-theta/PKC-delta selectivity (binned)” value in assay [3] is “D (D means a ratio of between 10 and 20)”.

In the case of `CC1(C)C(=O)Nc2nccc(-c3nn(C[C@]4(C)COCCN4)c4ccccc34)c21` [Example 109], in assay [1], the “PKC-theta HTRF pIC50” value was 7.7 and the IC50 is 10 to 31.6 nM. In assay [2] (setting [4]), the IC50 is 316 to 1000 nM. For the same compound, the IC50 in assay [2] (setting [5]) is 501 nM. In assay [3], the PKC-theta/PKC-delta selectivity was 11; the “PKC-theta/PKC-delta selectivity (binned)” value was “D (D means a ratio of between 10 and 20)”.

Consider `CC1(C)C(=O)Nc2nccc(-c3nn(C[C@]4(C)COCCN4)c4cc(F)ccc34)c21` [Example 110], for which, in assay [1], the “PKC-theta HTRF pIC50” value turned out to be 7.6. Further, the IC50 in assay [1] was 10 to 31.6 nM; in assay [2] (setting [4]), over 1000 nM; in assay [2] (setting [5]), 1000 nM. Further, in assay [3], the PKC-theta/PKC-delta selectivity is 29. The “PKC-theta/PKC-delta selectivity (binned)” value in assay [3] was “C (C means a ratio of between 20 and 30)”.

For the compound `CC1(O)C(=O)Nc2nccc(-c3cn([C@@H]4CCNC4)c4ccccc34)c21` (stereo partly drawn) [Example 111], in assay [1], the “PKC-theta HTRF pIC50” value was found to be 8.0 and the IC50 is 10 to 31.6 nM. Besides, the IC50 in assay [2] (setting [4]) is 316 to 1000 nM. Besides, the IC50 in assay [2] (setting [5]) was 398 nM. For the same compound, in assay [3], the PKC-theta/PKC-delta selectivity was determined as 7; the “PKC-theta/PKC-delta selectivity (binned)” value was “E (E means a ratio of between 5 and 10)”.

In the case of `CC1(C)C(=O)Nc2nccc(-c3nn(C4CCNCC4)c4cc(F)ccc34)c21` [Example 112], in assay [1], the “PKC-theta HTRF pIC50” value came out at 8.5 and the IC50 is 1 to 3.16 nM. The IC50 in assay [2] (setting [4]) is 31.6 to 100 nM. For the same compound, the IC50 in assay [2] (setting [5]) is 63.1 nM. In addition, in assay [3], the PKC-theta/PKC-delta selectivity was 22; the “PKC-theta/PKC-delta selectivity (binned)” value was “C (C means a ratio of between 20 and 30)”.

(Values after patent US20240239794A1, “PKC-Theta Modulators” (Exscientia AI Limited, priority 2021, published 2024).)
